Results: patent US20250008950A1, “BIOCIDE COMPOSITIONS” (BASF SE, priority 2021, published 2025)

Experiment: Solubility of biocide in solvent system (A1+A2)
Format: physicochemical
Protocol: General method of preparing emulsifiable composition (C): Component (A1) and component (A2) were mixed and heated to a temperature in the range of 20° C. to 100° C. to obtain a solution. Respective amount of the biocide was charged to the above solution at a temperature in the range of 20° C. to 100° C. to obtain the solution containing biocide. Emulsifier and other optional ingredients were charged o to the above biocide containing solution to obtain the emulsifiable composition (C).

## CO/C=C(/C(=O)OC)c1ccccc1Oc1cc(Oc2ccccc2C#N)ncn1 [Azoxystrobin]
Solvent system Acetophenone (A1) / 2-Methoxy-4-Methylphenol (A2), molar ratio A1:A2 1:1
  Solubility wt. % in total (C): 27 wt. %
Solvent system Acetophenone (A1) / 2-sec-Butylphenol (A2), molar ratio A1:A2 1:1
  Solubility wt. % in total (C): 32 wt. %
Solvent system Acetophenone (A1) / Phenyl acetic acid (A2), molar ratio A1:A2 2:1
  Solubility wt. % in total (C): 25 wt. %
Solvent system Acetophenone (A1) / Thymol (A2), molar ratio A1:A2 1:1
  Solubility wt. % in total (C): 28 wt. %
